Consider 4 molecules from patent US20230330134A1, “METHOD OF PROPHYLAXIS OF CORONAVIRUS AND/OR RESPIRATORY SYNCYTIAL VIRUS INFECTION” (Starpharma Pty Ltd., priority 2020, published 2023).

Structures can show the parent of a compound that is named as a salt. Where two headings read alike, the source gives them in different places.

The subject of one data set is BetaCoV/Wuhan/WIV04/2019. To be noted: against BetaCoV/Wuhan/WIV04/2019; cited from earlier work.
In another data set the test system is SARS. To be noted: cited from earlier work.
The test system of data set [1] is SARS-CoV-2 hCoV-19/Australia/VIC01/2020. Description: microbe, parasite or virus in culture. The class given is cell-based. To be noted: Severe acute respiratory syndrome coronavirus 2, 96 h; positive control; Vero cells; […]; CPE by MTT after 4 days; read-out: EC50.
Data set [2] deals with SARS-CoV-2 (2019-nCoV/USA-WA1/2020). Description: microbe, parasite or virus in culture. The class given is cell-based. The settings on record: for EC50: read-out: EC50.
Data set [3] relates to SARS-CoV-2 (hCoV-19/Australia/VIC01/2020). The class given is cell-based.
Data set [4] has as its system SARS-CoV-2 2019-nCoV/USA-WAl/2020. Briefly: Antiviral activity in primary human bronchial epithelial cells (HBEpC). Format: cell-based. The settings on record: highest concentration tested (600 µg/mL), added 1 hour prior to infection, day 4.

Broadly, the EC50 is the concentration giving half of the maximal effect. For orientation: IC50 means the concentration that gives 50% inhibition. On to `CCN(CC)CCCC(C)Nc1ccnc2cc(Cl)ccc12` (centres unmarked) [chloroquine], for which the 50% effective concentration (EC50) with BetaCoV/Wuhan/WIV04/2019 is 1.13 µM. The IC50 with SARS (against SARS) is 8 µM. For the same molecule, the CC50 in the data set with SARS was 261 µM.

Regarding `CCC(CC)COC(=O)[C@H](C)N[P@](=O)(OC[C@H]1O[C@@](C#N)(c2ccc3c(N)ncnn23)[C@H](O)[C@@H]1O)Oc1ccccc1` [Remdesivir, reference compound], the EC50 in data set [1] was determined as 5.05 µM; in data set [2] (Severe acute respiratory syndrome coronavirus 2, Calu-3), 0.589 µM; in data set [2] (Severe acute respiratory syndrome coronavirus 2, Vero C1008), 0.791 µM. The “activity in the plaque assay” value in data set [2] (positive control) is “active”. Also, the “inhibition of virus replication” value in data set [3] is less than 1 log10 TCID50.

Take `CCN(CCO)CCCC(C)Nc1ccnc2cc(Cl)ccc12` (centres unmarked) [Hydroxychloroquine sulfate]: in data set [3] (15 µM, any time point), the “effect on virus replication” value is “no discernible effect”.

Turning to iota-carrageenan [reference compound], in data set [4], the “reduction of infection by nucleocapsid ELISA” value was 17% and the “reduction of infection in the plaque assay” value came out at 21%.
